This assay deals with PANC-1 cells. Nature of the assay: cell viability assay in PANC-1 cells (compound alone, + 100 ng/ml TNFa, + 300 ng/ml TRAIL). Format: cell-based. As to conditions: Tables 6-10.
[1] abbreviates: Homo sapiens, PANC-1, compound alone, read-out: IC50 (μM) in cell viability assay in PANC-1 cells: Compound alone.
The mark [2] stands for this setting: with 100 ng/ml TNFa, read-out: IC50 (μM) in cell viability assay in PANC-1 cells: Compound + 100 ng/ml TNFa.
Where [3] appears, read: with 300 ng/ml TRAIL, read-out: IC50 (μM) in cell viability assay in PANC-1 cells: Compound + 300 ng/ml TRAIL.
Where [4] appears, read: compound alone, read-out: IC50 (μM) in cell viability assay in PANC-1 cells: Compound alone.

Structures are written as SMILES. Like-named read-outs stand apart in the source and are kept apart here. A value given as a limit tells only on which side of the number the result lay.

On to `CN[C@@H](C)C(=O)N[C@H](C(=O)N1C[C@@H](NC(=O)c2cccc(C(=O)N[C@H]3C[C@@H](C(=O)NC4CCCc5c(OC)cccc54)N(C(=O)[C@@H](NC(=O)[C@H](C)NC)C(C)(C)C)C3)c2)C[C@H]1C(=O)NC1CCCc2c(OC)cccc21)C(C)(C)C` (single isomer, unassigned) [Compound 46], for which the IC50 was above 1 µM under setting [1], 0.048 µM under setting [2] and 0.014 µM under setting [3].
In the case of `CN[C@@H](C)C(=O)N[C@H](C(=O)N1C[C@@H](NC(=O)c2cccc(C(=O)N[C@H]3C[C@@H](C(=O)NC4CCCc5c(OC)cccc54)N(C(=O)[C@@H](NC(=O)[C@H](C)NC)C(C)(C)C)C3)c2)C[C@H]1C(=O)NC1CCCc2c(OC)cccc21)C(C)(C)C` (single isomer, unassigned) [Compound 47], the IC50 under setting [4] was above 1 µM, the IC50 under setting [2] turned out to be 0.012 µM and the IC50 under setting [3] is 0.011 µM.
For `CN[C@@H](C)C(=O)N[C@H](C(=O)N1C[C@@H](NC(=O)c2cccc(C(=O)N[C@H]3C[C@@H](C(=O)N[C@@H]4CCCc5c(O)cccc54)N(C(=O)[C@@H](NC(=O)[C@H](C)NC)C(C)(C)C)C3)c2)C[C@H]1C(=O)N[C@@H]1CCCc2c(O)cccc21)C(C)(C)C` (single isomer, unassigned) [Compound 60], the IC50 is, setting by setting: under setting [1], above 1 µM; under setting [2], 0.044 µM; under setting [3], 0.049 µM.
As for `CN[C@@H](C)C(=O)N[C@H](C(=O)N1C[C@@H](NC(=O)c2cccc(C(=O)N[C@H]3C[C@@H](C(=O)N[C@@H]4CCCc5cc(O)ccc54)N(C(=O)[C@@H](NC(=O)[C@H](C)NC)C(C)(C)C)C3)c2)C[C@H]1C(=O)N[C@@H]1CCCc2cc(O)ccc21)C(C)(C)C` (single isomer, unassigned) [Compound 61], the IC50 by setting is: under setting [1], above 1 µM; under setting [2], 0.324 µM; under setting [3], 0.439 µM.
For `CN[C@@H](C)C(=O)N[C@H](C(=O)N1C[C@@H](NC(=O)c2cccc(C(=O)N[C@H]3C[C@@H](C(=O)N[C@@H]4CCCc5ccc(Br)cc54)N(C(=O)[C@@H](NC(=O)[C@H](C)NC)C(C)(C)C)C3)c2)C[C@H]1C(=O)N[C@@H]1CCCc2ccc(Br)cc21)C(C)(C)C` (single isomer, unassigned) [Compound 62], the IC50 was above 1 µM under setting [1], 0.107 µM under setting [2] and 0.099 µM under setting [3].
`CN[C@@H](C)C(=O)N[C@H](C(=O)N1C[C@@H](NC(=O)c2cccc(C(=O)N[C@H]3C[C@@H](C(=O)N[C@@H]4CCCc5ccc(Br)cc54)N(C(=O)[C@@H](NC(=O)[C@H](C)NC)C(C)(C)C)C3)c2)C[C@H]1C(=O)N[C@@H]1CCCc2ccc(Br)cc21)C(C)(C)C` (single isomer, unassigned) [Compound 63]: the IC50 is above 1 µM under setting [4], 0.143 µM under setting [2] and 0.162 µM under setting [3].
`CN[C@@H](C)C(=O)N[C@H](C(=O)N1C[C@@H](NC(=O)c2cccc(C(=O)N[C@H]3C[C@@H](C(=O)NC4CCCc5ccc([N+](=O)[O-])cc54)N(C(=O)[C@@H](NC(=O)[C@H](C)NC)C(C)(C)C)C3)c2)C[C@H]1C(=O)NC1CCCc2ccc([N+](=O)[O-])cc21)C(C)(C)C` (single isomer, unassigned) [Compound 64]: the IC50 under setting [1] was above 1 µM, the IC50 under setting [2] was 0.18 µM and the IC50 under setting [3] was found to be 0.151 µM.
`CN[C@@H](C)C(=O)N[C@H](C(=O)N1C[C@@H](NC(=O)c2cccc(C(=O)N[C@H]3C[C@@H](C(=O)NC4CCOc5ccccc54)N(C(=O)[C@@H](NC(=O)[C@H](C)NC)C(C)(C)C)C3)c2)C[C@H]1C(=O)NC1CCOc2ccccc21)C(C)(C)C` (single isomer, unassigned) [Compound 65]: the IC50 under setting [1] was above 1 µM, the IC50 under setting [2] amounted to 0.265 µM and the IC50 under setting [3] was 0.328 µM.
As for `CN[C@@H](C)C(=O)N[C@H](C(=O)N1C[C@@H](NC(=O)c2cccc(C(=O)N[C@H]3C[C@@H](C(=O)NC4CCOc5ccccc54)N(C(=O)[C@@H](NC(=O)[C@H](C)NC)C(C)(C)C)C3)c2)C[C@H]1C(=O)NC1CCOc2ccccc21)C(C)(C)C` (single isomer, unassigned) [Compound 66], the IC50 under setting [4] was above 1 µM, the IC50 under setting [2] worked out at 0.012 µM and the IC50 under setting [3] amounted to 0.013 µM.
With `CN[C@@H](C)C(=O)N[C@H](C(=O)N1C[C@@H](NC(=O)c2cccc(C(=O)N[C@H]3C[C@@H](C(=O)NC4CCSc5ccccc54)N(C(=O)[C@@H](NC(=O)[C@H](C)NC)C(C)(C)C)C3)c2)C[C@H]1C(=O)NC1CCSc2ccccc21)C(C)(C)C` (single isomer, unassigned) [Compound 67], the IC50 was above 1 µM under setting [1], 0.191 µM under setting [2] and 0.22 µM under setting [3].
For the compound `CN[C@@H](C)C(=O)N[C@H](C(=O)N1C[C@@H](NC(=O)c2cccc(C(=O)N[C@H]3C[C@@H](C(=O)NC4CCSc5ccccc54)N(C(=O)[C@@H](NC(=O)[C@H](C)NC)C(C)(C)C)C3)c2)C[C@H]1C(=O)NC1CCSc2ccccc21)C(C)(C)C` (single isomer, unassigned) [Compound 68], the IC50 runs as follows: under setting [4], above 1 µM; under setting [2], 0.029 µM; under setting [3], 0.019 µM.
For the compound `CN[C@@H](C)C(=O)N[C@H](C(=O)N1C[C@@H](NC(=O)c2cccc(C(=O)N[C@H]3C[C@@H](C(=O)NC4CCCc5cccc(F)c54)N(C(=O)[C@@H](NC(=O)[C@H](C)NC)C(C)(C)C)C3)c2)C[C@H]1C(=O)NC1CCCc2cccc(F)c21)C(C)(C)C` (single isomer, unassigned) [Compound 70], the IC50 is above 1 µM under setting [1], 0.0011 µM under setting [2] and 0.0033 µM under setting [3].
In the case of `CN[C@@H](C)C(=O)N[C@H](C(=O)N1C[C@@H](NC(=O)c2cccc(C(=O)N[C@H]3C[C@@H](C(=O)NC4CCCc5cccc(F)c54)N(C(=O)[C@@H](NC(=O)[C@H](C)NC)C(C)(C)C)C3)c2)C[C@H]1C(=O)NC1CCCc2cccc(F)c21)C(C)(C)C` (single isomer, unassigned) [Compound 71], the IC50 was above 1 µM under setting [4], 0.005 µM under setting [2] and 0.0091 µM under setting [3].
In the case of `CN[C@@H](C)C(=O)N[C@H](C(=O)N1C[C@@H](NC(=O)c2cccc(C(=O)N[C@H]3C[C@@H](C(=O)NC4CCCc5cc(F)ccc54)N(C(=O)[C@@H](NC(=O)[C@H](C)NC)C(C)(C)C)C3)c2)C[C@H]1C(=O)NC1CCCc2cc(F)ccc21)C(C)(C)C` (single isomer, unassigned) [Compound 72], the IC50 under setting [1] is above 1 µM, the IC50 under setting [2] came out at 0.0018 µM and the IC50 under setting [3] is 0.0033 µM.
For `CN[C@@H](C)C(=O)N[C@H](C(=O)N1C[C@@H](NC(=O)c2cccc(C(=O)N[C@H]3C[C@@H](C(=O)NC4CCCc5cc(F)ccc54)N(C(=O)[C@@H](NC(=O)[C@H](C)NC)C(C)(C)C)C3)c2)C[C@H]1C(=O)NC1CCCc2cc(F)ccc21)C(C)(C)C` (single isomer, unassigned) [Compound 73], the IC50 is, setting by setting: under setting [4], above 1 µM; under setting [2], 0.0698 µM; under setting [3], 0.073 µM.
`CN[C@@H](C)C(=O)N[C@H](C(=O)N1C[C@@H](NC(=O)c2cccc(C(=O)N[C@H]3C[C@@H](C(=O)NC4CCCc5cc(Br)ccc54)N(C(=O)[C@@H](NC(=O)[C@H](C)NC)C(C)(C)C)C3)c2)C[C@H]1C(=O)NC1CCCc2cc(Br)ccc21)C(C)(C)C` (single isomer, unassigned) [Compound 75]: the IC50 reads like this: under setting [1], above 1 µM; under setting [2], 0.018 µM; under setting [3], 0.013 µM.
Consider `CC[C@@H](NC(=O)[C@@H]1C[C@H](NC(=O)c2cccc(C(=O)N[C@H]3C[C@@H](C(=O)N[C@H](CC)c4ccccc4)N(C(=O)[C@@H](NC(=O)[C@H](C)NC)C(C)(C)C)C3)c2)CN1C(=O)[C@@H](NC(=O)[C@H](C)NC)C(C)(C)C)c1ccccc1` [Compound 1], for which the IC50 was above 1 µM under setting [1], 0.0023 µM under setting [2] and 0.0019 µM under setting [3].
As to `CC[C@@H](NC(=O)[C@@H]1C[C@H](NC(=O)c2cccc(C(=O)N[C@H]3C[C@@H](C(=O)N[C@H](CC)c4ccccc4)N(C(=O)[C@@H](NC(=O)[C@H](C)NC)C(C)(C)C)C3)c2)CN1C(=O)[C@@H](NC(=O)[C@H](C)NC)C(C)(C)C)c1ccccc1` [Compound 2], the IC50 reads like this: under setting [4], above 1 µM; under setting [2], 0.062 µM; under setting [3], 0.054 µM.
`CN[C@@H](C)C(=O)N[C@H](C(=O)N1C[C@@H](NC(=O)c2cccc(C(=O)N[C@H]3C[C@@H](C(=O)NCCc4ccc(O)cc4)N(C(=O)[C@@H](NC(=O)[C@H](C)NC)C(C)(C)C)C3)c2)C[C@H]1C(=O)NCCc1ccc(O)cc1)C(C)(C)C` [Compound 3]: the IC50 by setting is: under setting [1], above 1 µM; under setting [2], 0.5 µM; under setting [3], 0.42 µM.
For `CN[C@@H](C)C(=O)N[C@H](C(=O)N1C[C@@H](NC(=O)c2cccc(C(=O)N[C@H]3C[C@@H](C(=O)NCCc4ccc(N)cc4)N(C(=O)[C@@H](NC(=O)[C@H](C)NC)C(C)(C)C)C3)c2)C[C@H]1C(=O)NCCc1ccc(N)cc1)C(C)(C)C` [Compound 4] the same measures were above 1 µM, above 1 µM and 0.739 µM.
On to `CN[C@@H](C)C(=O)N[C@H](C(=O)N1C[C@@H](NC(=O)c2cccc(C(=O)N[C@H]3C[C@@H](C(=O)NCc4ccc(OC)c(O)c4)N(C(=O)[C@@H](NC(=O)[C@H](C)NC)C(C)(C)C)C3)c2)C[C@H]1C(=O)NCc1ccc(OC)c(O)c1)C(C)(C)C` [Compound 5], for which the IC50 by setting is: under setting [1], above 1 µM; under setting [2], 0.706 µM; under setting [3], 0.982 µM.
The corresponding values for `CN[C@@H](C)C(=O)N[C@H](C(=O)N1C[C@@H](NC(=O)c2cccc(C(=O)N[C@H]3C[C@@H](C(=O)NCc4ccc(O)c(OC)c4)N(C(=O)[C@@H](NC(=O)[C@H](C)NC)C(C)(C)C)C3)c2)C[C@H]1C(=O)NCc1ccc(O)c(OC)c1)C(C)(C)C` [Compound 6] are above 1 µM, 0.471 µM and 0.31 µM.

The record behind these values is patent publication US20130344026A1, “Dimeric Smac Mimetics” (priority 2009, published 2013).
